Assay results from patent US20220213055A1, “SUBSTITUTED (PIPERIDIN-1-YL)ARYL ANALOGUES FOR MODULATING AVIL ACTIVITY” (University of Virginia Patent Foundation, priority 2019, published 2022).
Where two headings read alike, the source gives them in different places.

Key:
[1] = test system: Immortalized human astrocytes; experiment: MTT cell viability assay, astrocytes (non-cancer control); assay type: cell-based; details: immortalized human astrocytes, MTT after three days
Experimental: (§1) Different concentration of compounds were added to the cells. Three days later, a MTT assay (Sigma) was performed to monitor cell viability.
(§2) In this example, samples of glioblastoma cells (U87) and astrocyte cells (non-cancer control) were exposed various disclosed compounds to determine the effectiveness of the compounds for inhibiting cell growth.

[2] = test system: Glioblastoma cell line U87 cells; experiment: MTT cell viability assay, glioblastoma cells; assay type: cell-based; details: U87 glioblastoma cells, MTT after three days
Experimental: as §1, §2

Row | Compound | IC50 ([1]; Homo sapiens, Astrocyte, 72 h) [µM] | IC50 ([2]; Homo sapiens, U-87 MG, 72 h) [µM] | IC50 ([1]; read-out: IC50 (astrocyte)) [µM] | IC50 [2] [µM]
1 | Nc1nccc(N2CCCCC2)n1 [JDDUVA12, 4-(Piperidin-1-yl)pyrimidin-2-amine] | > 80 | > 80 | – | –
2 | COC(=O)C1CCCN(c2ccnc(N)n2)C1 (stereo not drawn) [JDDUVA16] | – | > 80 | – | –
3 | Nc1nccc(N2CCCC(CO)C2)n1 (stereo not drawn) [JDDUVA18, (1-(2-Aminopyrimidin-4-yl)piperidin-3-yl)methanol] | – | > 80 | – | –
4 | COC(=O)C1(CCCc2ccccc2)CCCN(c2ccnc(N)n2)C1 (stereo not drawn) [JDDUVA20] | 70 | ~10.9 | – | –
5 | Nc1nccc(N2CCCC(CO)(CCCc3ccccc3)C2)n1 (stereo not drawn) [JDDUVA28] | – | – | > 80 | ~12.2
6 | Nc1nccc(N2CCCC(CO)(CCCc3ccccc3)C2)n1 (stereo not drawn) [JDDUVA38] | – | – | 56 | ~11
7 | Cc1nc(N)nc(N2CCC(CO)(CCCc3ccccc3)CC2)c1C [JDDUVA43, (1-(2-Amino-5,6-dimethylpyrimidin-4-yl)-4-(3-phenylpropyl)piperidin-4-yl)methanol] | 47 | – | 60 | –
8 | OCC1(CCCc2ccccc2)CCN(c2cc(C(F)(F)F)ncn2)CC1 [JDDUVA47, (4-(3-Phenylpropyl)-1-(6-(trifluoromethyl)pyrimidin-4-yl)piperidin-4-yl)methanol] | > 80 | 13 | – | –
9 | Cc1c(O)ncnc1N1CCC(CO)(CCCc2ccccc2)CC1 [JDDUVA48, 6-(4-(Hydroxymethyl)-4-(3-phenylpropyl)piperidin-1-yl)-5-methylpyrimidin-4-ol] | 7.32 | 14.1 | – | –
10 | Nc1nccc(N2CCC(CO)(CCCc3ccccc3)CC2)n1 [JDDUVA49, (1-(2-Aminopyrimidin-4-yl)-4-(3-phenylpropyl)piperidin-4-yl)methanol] | > 80 | 3 | – | –
11 | Cc1c(Cl)ncnc1N1CCC(CO)(CCCc2ccccc2)CC1 [JDDUVA50, (1-(6-Chloro-5-methylpyrimidin-4-yl)-4-(3-phenylpropyl)piperidin-4-yl)methanol] | > 80 | 21 | – | –
12 | Nc1ncnc(N2CCC(CO)(CCCc3ccccc3)CC2)c1N [JDDUVA51, (1-(5,6-Diaminopyrimidin-4-yl)-4-(3-phenylpropyl)piperidin-4-yl)methanol] | > 80 | 12 | – | –
13 | COc1nc(OC)nc(N2CCC(CO)(CCCc3ccccc3)CC2)n1 [JDDUVA52, (1-(4,6-Dimethoxy-1,3,5-triazin-2-yl)-4-(3-phenylpropyl)piperidin-4-yl)methanol] | > 80 | 41 | – | –
14 | Cc1nccnc1N1CCC(CO)(CCCc2ccccc2)CC1 [JDDUVA53, (1-(3-Methylpyrazin-2-yl)-4-(3-phenylpropyl)piperidin-4-yl)methanol] | > 80 | 30 | – | –
15 | Nc1cncc(N2CCC(CO)(CCCc3ccccc3)CC2)n1 [JDDUVA55] | > 80 | 16 | – | –
16 | CC1CCN(c2ccnc(N)n2)CC1 [JDDUVA59, 4-(4-Methylpiperidin-1-yl)pyrimidin-2-amine] | > 80 | 72 | – | –
17 | OCC1(CCCc2ccccc2)CCN(c2cc(Cl)ncn2)CC1 [JDDUVA60, (1-(6-Chloropyrimidin-4-yl)-4-(3-phenylpropyl)piperidin-4-yl)methanol] | > 80 | – | – | –
18 | Nc1nccc(N2CCCCC2CO)n1 (stereo not drawn) [JDDUVA61, (1-(2-Aminopyrimidin-4-yl)piperidin-2-yl)methanol] | > 80 | > 80 | – | –
19 | Nc1nccc(N2CCC(c3ccccc3)CC2)n1 [JDDUVA63, 4-(4-Phenylpiperidin-1-yl)pyrimidin-2-amine] | > 80 | 16 | – | –
20 | COc1c(Cl)ncnc1N1CCC(CO)(CCCc2ccccc2)CC1 [JDDUVA67, (1-(6-Chloro-5-methoxypyrimidin-4-yl)-4-(3-phenylpropyl)piperidin-4-yl)methanol] | ~6 | ~2.5 | – | –
21 | CCc1ncnc(N2CCC(CO)(CCCc3ccccc3)CC2)c1F [JDDUVA68, (1-(6-Ethyl-5-fluoropyrimidin-4-yl)-4-(3-phenylpropyl)piperidin-4-yl)methanol] | 12.5 | 3.6 | – | –
22 | Nc1ccnc(N2CCC(CO)(CCCc3ccccc3)CC2)n1 [JDDUVA69, (1-(4-Aminopyrimidin-2-yl)-4-(3-phenylpropyl)piperidin-4-yl)methanol] | > 80 | 13.6 | – | –
23 | Nc1nccc(N2CCc3ccccc3C2)n1 [JDDUVA71, 4-(3,4-Dihydroisoquinolin-2(1H)-yl)pyrimidin-2-amine] | > 80 | > 80 | – | –
24 | CCOC(=O)C1(CCCc2ccccc2)CCN(C(=O)OC(C)(C)C)CC1 [JDDUVA76] | ~60 | ~30 | – | –
25 | Nc1nc(N)nc(N2CCC(CO)(CCCc3ccccc3)CC2)n1 [JDDUVA78, (1-(4,6-Diamino-1,3,5-triazin-2-yl)-4-(3-phenylpropyl)piperidin-4-yl)methanol] | ~40 | 12 | – | –
26 | Clc1cc(N2CCc3ccccc3C2)ncn1 [JDDUVA81] | > 80 | > 80 | – | –

Row | Compound | IC50 ([1]; Homo sapiens, Astrocyte, 72 h) [µM] | IC50 ([2]; Homo sapiens, U-87 MG, 72 h) [µM] | IC50 ([1]; read-out: IC50 (astrocyte)) [µM] | IC50 [2] [µM]
27 | Cc1ncnc(N2CCC(CO)(CCCc3ccccc3)CC2)c1C [JDDUVA96, (1-(5,6-Dimethylpyrimidin-4-yl)-4-(3-phenylpropyl)piperidin-4-yl)methanol] | ~8 | ~4 | – | –
28 | COC(=O)C1CCCNC1 (stereo not drawn) [PLH1155] | > 80 | > 80 | – | –
29 | COC(=O)C1CCCN(C(=O)OC(C)(C)C)C1 (stereo not drawn) [PLH1190] | > 80 | > 80 | – | –
30 | COC(=O)C1(CCCc2ccccc2)CCCN(C(=O)OC(C)(C)C)C1 (stereo not drawn) [PLH1195] | 65 | ~22.5 | – | –
31 | CC(C)(C)OC(=O)N1CCCC(CO)(CCCc2ccccc2)C1 (stereo not drawn) [PLH1196] | > 80 | ~30 | – | –
32 | O=C(O)C1(CCCc2ccccc2)CCCNC1 (stereo not drawn) [PLH1197] | > 80 | ~80 | – | –
33 | COC(=O)C1(CCCc2ccccc2)CCCN(c2ccnc(N)n2)C1 (stereo not drawn) [PLH1209, Methyl 1-(2-aminopyrimidin-4-yl)-3-(3-phenylpropyl)piperidine-3-carboxylate] | – | – | 76 | 6
34 | OCC1(CCCc2ccccc2)CCCNC1 (stereo not drawn) [PLH1211] | > 80 | > 80 | – | –
35 | Nc1nccc(N2CCCC(CO)(CCCc3ccccc3)C2)n1 (stereo not drawn) [PLH1215, (1-(2-Aminopyrimidin-4-yl)-3-(3-phenylpropyl)piperidin-3-yl)methanol] | > 80 | ~11.7 | – | –
36 | CS(=O)(=O)OCC1(CCCc2ccccc2)CCCN(c2ccnc(N)n2)C1 (stereo not drawn) [PLH1224] | > 80 | ~50 | – | –
37 | CCOC(=O)C1(CCCc2ccccc2)CCCN(C(=O)OC(C)(C)C)C1 (stereo not drawn) [PLH1225] | > 80 | ~15 | – | –
38 | COc1nc(OC)nc(N2CCCC(CO)(CCCc3ccccc3)C2)n1 (stereo not drawn) [PLH1230, (1-(4,6-Dimethoxy-1,3,5-triazin-2-yl)-3-(3-phenylpropyl)piperidin-3-yl)methanol] | > 80 | 63.6 | – | –
39 | Cc1nccnc1N1CCCC(CO)(CCCc2ccccc2)C1 (stereo not drawn) [PLH1234, (1-(3-Methylpyrazin-2-yl)-3-(3-phenylpropyl)piperidin-3-yl)methanol] | 51.8 | 20 | – | –
40 | Nc1ncnc(N2CCCC(CO)(CCCc3ccccc3)C2)n1 (stereo not drawn) [PLH1239, (1-(4-Amino-1,3,5-triazin-2-yl)-3-(3-phenylpropyl)piperidin-3-yl)methanol] | – | > 80 | – | –
41 | Nc1nccc(N2CCCC(CCCc3ccccc3)(COCc3ccccc3)C2)n1 (stereo not drawn) [PLH1253, 4-(3-((Benzyloxy)methyl)-3-(3-phenylpropyl)piperidin-1-yl)pyrimidin-2-amine] | – | ~1.7 | – | ~3.4
42 | O=C(c1sc2cc(F)ccc2c1Cl)N1CCCC(CO)(CCCc2ccccc2)C1 (stereo not drawn) [PLH1254] | 49 | 16 | – | –
43 | Nc1nc(N)nc(N2CCCC(CO)(CCCc3ccccc3)C2)n1 (stereo not drawn) [PLH1258, (1-(4,6-Diamino-1,3,5-triazin-2-yl)-3-(3-phenylpropyl)piperidin-3-yl)methanol] | > 80 | 3.6 | – | –
44 | CC(C)(C)OC(=O)N1CCCC(C(=O)NCc2ccccc2)C1 (stereo not drawn) [PLH1273] | > 80 | > 80 | – | –
45 | Cc1nc(N(C)C)nc(N2CCCC(CO)(CCCc3ccccc3)C2)c1C (stereo not drawn) [PLH1276, (1-(2-(Dimethylamino)-5,6-dimethylpyrimidin-4-yl)-3-(3-phenylpropyl)piperidin-3-yl)methanol] | > 80 | 19 | – | –
46 | Cc1c(Cl)ncnc1N1CCCC(CO)(CCCc2ccccc2)C1 (stereo not drawn) [PLH1279, (1-(6-Chloro-5-methylpyrimidin-4-yl)-3-(3-phenylpropyl)piperidin-3-yl)methanol] | > 80 | 8 | – | –
47 | Nc1nccc(N2CCCC(C(=O)NCCc3ccccc3)C2)n1 (stereo not drawn) [PLH1285, 1-(2-Aminopyrimidin-4-yl)-N-phenethylpiperidine-3-carboxamide] | > 80 | 17 | – | –
48 | Nc1nccc(N2CCCC(C(=O)NCc3ccccc3)C2)n1 (stereo not drawn) [PLH1290, 1-(2-Aminopyrimidin-4-yl)-N-benzylpiperidine-3-carboxamide] | > 80 | > 80 | – | –
49 | OCC1(CCCc2ccccc2)CCCN(c2ccccn2)C1 (stereo not drawn) [PLH1291, (3-(3-Phenylpropyl)-1-(pyridin-2-VI)piperidin-3-VI)methanol] | > 80 | 14 | – | –
50 | O=Cc1c(Cl)ncnc1N1CCCC(CO)(CCCc2ccccc2)C1 (stereo not drawn) [PLH1293] | 18 | 8 | – | –
51 | COc1c(Cl)ncnc1N1CCCC(CO)(CCCc2ccccc2)C1 (stereo not drawn) [PLH1302, (1-(6-Chloro-5-methoxypyrimidin-4-yl)-3-(3-phenylpropyl)piperidin-3-yl)methanol] | ~20 | ~2.5 | 10 | 2.3
52 | Nc1nccc(N2CCCC(CO)(CCc3ccccc3)C2)n1 (stereo not drawn) [PLH1304, (1-(2-Aminopyrimidin-4-yl)-3-phenethylpiperidin-3-yl)methanol] | ~80 | 3.83 | – | –
